Source: article PMC4052943 (BioMed Research International, 2014)
Where “and” joins values, the source holds several entries; their conditions need not be identical. Equal entries are not always repeated. Where two headings read alike, the source gives them in different places.

Assays:
[1] = tested on: Salmonella typhimurium TA97a; conditions: TA 97a, no S9
Procedure: (§1) In the preincubation experiment, test compounds and mutagen, each having a volume of 0.1 mL of varying concentrations, were preincubated at 37°C for 30 min and then 0.1 mL of 1 × 10^7 CFU/mL density of the bacterial culture was added, followed by the addition of 2.5 mL of top agar at 45°C (containing 0.5% NaCl and 0.6% agar) supplemented with 0.5 mM histidine-biotin. […] The combined solutions were vortexed and poured onto minimal glucose plates (40% glucose solution and Vogel Bonner medium). The plates were incubated at 37°C for 48 h and the numbers of histidine-independent revertants colonies were scored.
(§2) Survival of the bacteria was routinely monitored for each experiment. Parallel controls were run with compounds alone at all concentrations to test the possible toxicity. The concentrations of the test samples for investigating the antimutagenicity were 50, 100, 200, and 500 μM. […] All the test samples and mutagens were dissolved in DMSO (final conc., 0.01%). […] Plates were set up in triplicate for each concentration and the entire experiment was repeated three times. Inhibition of mutagenicity was expressed as percentage decrease of reverse mutation and calculated as (1) Percent inhibition=[(a−b)/(a−c)]×100, where a = number of histidine revertants induced by mutagen, b = number of histidine revertants induced by mutagen in the presence of test compound, and c = number of revertants induced in negative control.

[2] = tested on: Salmonella typhimurium TA98; conditions: TA 98, no S9
Procedure: as §1, §2

[3] = tested on: Salmonella typhimurium TA100; conditions: TA 100, no S9
Procedure: as §1, §2

[4] = tested on: Salmonella typhimurium TA102; conditions: TA 102, no S9
Procedure: as §1, §2

[5] = positive control MMS 1.5 μg (Table 8)

| Structure (SMILES) | Number of His+ revertants colonies/plate ([1]; positive control MMS 1.0 μg) | Number of His+ revertants colonies/plate [1, 5] [colonies/plate] | Number of His+ revertants colonies/plate ([2]; positive control MMS 1.0 μg) [colonies/plate] | Number of His+ revertants colonies/plate [2, 5] [colonies/plate] | Number of His+ revertants colonies/plate ([3]; positive control MMS 1.0 μg) [colonies/plate] | Number of His+ revertants colonies/plate [3, 5] [colonies/plate] | Number of His+ revertants colonies/plate ([4]; positive control MMS 1.0 μg) [colonies/plate] | Number of His+ revertants colonies/plate [4, 5] [colonies/plate] | Number of His+ revertants colonies/plate ([1]; positive control NaN3 1.5 μg) [colonies/plate] | Number of His+ revertants colonies/plate ([2]; positive control NaN3 1.5 μg) [colonies/plate] | Number of His+ revertants colonies/plate ([3]; positive control NaN3 1.5 μg) [colonies/plate] | Number of His+ revertants colonies/plate ([4]; positive control NaN3 1.5 μg) |
| --- | --- | --- | --- | --- | --- | --- | --- | --- | --- | --- | --- | --- |
| COS(C)(=O)=O [MMS, Methyl methanesulfonate, reference compound] | 449 colonies/plate and 449.7 ± 7.2 colonies/plate | 449.7 ± 7.2 | 53.7 ± 1.5 | 53.7 ± 1.5 | 963.0 ± 11.4 | 963.0 ± 11.4 | 1237.0 ± 14.5 | 1237.0 ± 14.5 |  |  |  |  |
| [N-]=[N+]=[N-].[Na+] [NaN3, Sodium azide, reference compound] |  |  |  |  |  |  |  |  | 256.0 ± 11.7 | 52.3 ± 1.8 | 361.3 ± 11.0 | 370.0 ± 9.0 colonies/plate and 355.0 ± 15.5 colonies/plate |
